test system: HCV replicon cells Huh 9B; experiment: HCV replicon assay (luciferase) in Huh 9B replicon cells; assay type: cell-based; settings: Hepatitis C virus; concentration reducing replicon level (luciferase activity) by 50% vs untreated cell control; 72 h incubation
Method: HCV replicon cells Huh 9B (ReBlikon), containing the firefly luciferase—ubiquitin—neomycin phosphotransferase fusion protein and EMCV-IRES driven HCV polyprotein with cell culture adaptive mutations.
Cells were cultured at 37° C. in a 5% CO2 environment and split twice a week on seeding at 2×10E6 cells/flask on day 1 and 1×10E6 3 days later. Some 0.25 mg/ml G418 was added to the culture medium (125 ul per 25 ml) but not the assay medium.
The culture medium consisted of DMEM with […] glucose and glutamax (Gibco 61965-026) supplemented with 1× non-essential amino acids, penicillin (100 IU/ml)/streptomycin (100 μg/ml), FCS (10%, 50 ml) and 1 mg/ml G418 (Invitrogen cat no 10131-027) & 10% foetal calf serum.
A flask of cells was trypsinised and a cell count carried out. Cells were diluted to 100,000 cells/ml and 100 μl of this used to seed one opaque white 96-well plate (for the replicon assay) and one flat-bottomed clear plate (for the tox assay) for every seven compounds to be tested for IC50. Wells G12 and H12 were left empty in the clear plate as the blank. Plates were then incubated at 37° C. in a 5% CO2 environment for 24 h.
On the following day compound dilutions are made up in medium at twice their desired final concentration in a clear round bottomed plate. All dilutions have a final DMSO concentration of 1%.
Once the dilution plate had been made up, controls and compounds were transferred to the assay plate (containing the cells) at 100 μl/well in duplicate plates.
Exception: in the white (replicon) plate, no compound was added to wells A1 and A2 and 100 μl of 1% DMSO was added to these instead. In the clear (Tox) plate, wells E12 & F12 only contained the DMSO control. Plates were then incubated at 37° C. with 5% CO2 for 72 h.
At the end of the incubation time, the cells in the white plate were harvested by washing with 200 μl/well of warm (37° C.) PBS and lysed with 20 μl cell culture lysis buffer (Promega). After 5 min incubation @ RT, luciferin solution was added to the luciferase assay buffer (LARB at 200 μl per 10 ml LARB. The M injector of the microplate luminometer (Lmax, Molecular Devices) was primed with […] injections. Plate were inserted into the luminometer and 100 μl luciferase assay reagent was added by the injector on the luminometer. The signal was measured using a 1 second delay followed by a 4 second measurement programme. The IC50, the concentration of the drug required for reducing the replicon level by 50% in relation to the untreated cell control value, can be calculated from the plot of the percentage reduction of the luciferase activity vs. drug concentration.

Structure (SMILES) | IC50
c1cc(-c2ccc3ncnc(Nc4ccc(N5CCOCC5)cc4)c3c2)cc(-n2cccn2)c1 [Example 23, (4-Morpholin-4-yl-phenyl)-[6-(3-pyrazol-1-yl-phenyl)-quinazolin-4-yl]-amine] | < 1 µM
COc1ncc(-c2ccc3ncnc(Nc4ccc(N5CCOCC5)cc4)c3c2)cn1 [Example 19, [6-(2-Methoxy-pyrimidin-5-yl)-quinazolin-4-yl]-(4-morpholin-4-yl-phenyl)-amine] | < 1 µM
CNC(=O)c1ccc2ncnc(Nc3ccc(N4CCOCC4)cc3)c2c1 [Example 30, 4-(4-Morpholin-4-yl-phenylamino)-quinazoline-6-carboxylic acid methylamide] | < 5 µM
CC(=O)Nc1ccc(-c2ccc3ncnc(Nc4ccc(N5CCOCC5)cc4)c3c2)cc1 [Example 35, N-{4-[4-(4-Morpholin 4-yl-phenylamino)-quinazolin-6-yl]-phenyl}-acetamide] | < 1 µM
Brc1ccc2ncnc(Nc3ccc(N4CCOCC4)cc3)c2c1 [Example 1, (6-Bromo-quinazolin-4-yl)-(4-morpholin-4-yl-phenyl)-amine] | < 5 µM
CS(=O)(=O)c1ccc(-c2ccc3ncnc(Nc4ccc(N5CCOCC5)cc4)c3c2)cc1 [Example 22, [6-(4-Methanesulfonyl-phenyl)-quinazolin-4-yl]-(4-morpholin-4-yl-phenyl)-amine] | < 1 µM
c1csc(-c2ccc3ncnc(Nc4ccc(N5CCOCC5)cc4)c3c2)c1 [Example 15, (4-Morpholin-4-yl-phenyl)-(6-thiophen-2-yl-quinazolin-4-yl)-amine] | < 1 µM
O=C(Nc1ccc2ncnc(Nc3ccc(N4CCOCC4)cc3)c2c1)c1ccco1 [Example 25, Furan-2-carboxylic acid [4-(4-morpholin-4-yl-phenylamino)-quinazolin-6-yl]-amide] | < 25 µM
c1ccc(COc2ccc(-c3ccc4ncnc(Nc5ccc(N6CCOCC6)cc5)c4c3)cc2)cc1 [Example 51, [6-(4-Benzyloxy-phenyl)-quinazolin-4-yl]-(4-morpholin-4-yl-phenyl)-amine] | < 5 µM
FC(F)(F)c1cc(N2CCOCC2)ccc1Nc1ncnc2ccc(I)cc12 [Example 39, (6-Iodo-quinazolin-4-yl)-(4-morpholin-4-yl-2-trifluoromethyl-phenyl)-amine] | < 1 µM
c1nc(Nc2ccc(N3CCOCC3)cc2)c2cc(-c3ccc(CN4CCOCC4)o3)ccc2n1 [Example 12, [6-(5-Morpholin-4-ylmethyl-furan-2-yl)-quinazolin-4-yl]-(4-morpholin-4-yl-phenyl)-amine] | < 1 µM
FC(F)(F)c1cc(N2CCOCC2)ccc1Nc1ncnc2ccc(-c3cccs3)cc12 [Example 40, (4-Morpholin-4-yl-2-trifluoromethyl-phenyl)-(6-thiophen-2-yl-quinazolin-4-yl)-amine] | < 1 µM
OCc1ccc(-c2ccc3ncnc(Nc4ccc(N5CCOCC5)cc4)c3c2)o1 [Example 8, {5-[4-(4-morpholin-4-yl-phenylamino)-quinazolin-6-yl]-furan-2-yl}-methanol] | < 1 µM
O=C(O)c1ccc(-c2ccc3ncnc(Nc4ccc(N5CCOCC5)cc4)c3c2)s1 [Example 21, 5-[4-(4-Morpholin-4-yl-phenylamino)-quinazolin-6-yl]-thiophene-2-carboxylic acid] | < 25 µM
CC(C)CCN(c1ccc(N2CCOCC2)cc1)c1ncnc2ccc(-c3cccs3)cc12 [Example 49, (3-Methyl-butyl)-(4-morpholin-4-yl-phenyl)-(6-thiophen-2-yl-quinazolin-4-yl)-amine] | < 5 µM
COc1ccc(CNC(=O)c2ccc3ncnc(Nc4ccc(N5CCOCC5)cc4)c3c2)cc1 [Example 26, 4-(4-Morpholin-4-yl-phenylamino)-quinazoline-6-carboxylic acid 4-methoxy-benzylamide] | < 5 µM
N#Cc1ccc(-c2ccc3ncnc(Nc4ccc(N5CCOCC5)cc4)c3c2)cc1 [Example 24, 4-[4-(4-Morpholin-4-yl-phenylamino)-quinazolin-6-yl]-benzonitrile] | < 5 µM
Cc1ccc(CNC(=O)c2ccc3ncnc(Nc4ccc(N5CCOCC5)cc4)c3c2)cc1 [Example 29, 4-(4-Morpholin-4-yl-phenylamino)-quinazoline-6-carboxylic acid 4-methyl-benzylamide] | < 5 µM

Structure (SMILES) | IC50
O=C(Nc1ccc(-c2ccc3ncnc(Nc4ccc(N5CCOCC5)cc4)c3c2)cc1)OCc1ccccc1 [Example 34, {4-[4-(4-Morpholin-4-yl-phenylamino)-quinazolin-6-yl]-phenyl}-carbamic acid benzyl ester] | < 1 µM
CNCc1ccc(-c2ccc3ncnc(Nc4ccc(N5CCOCC5)cc4)c3c2)o1 [Example 14, [6-(5-Methylaminomethyl-furan-2-yl)-quinazolin-4-yl]-(4-morpholin4-yl-phenyl)-amine] | < 25 µM
COc1cccc(CNC(=O)c2ccc3ncnc(Nc4ccc(N5CCOCC5)cc4)c3c2)c1 [Example 28, 4-(4-Morpholin-4-yl-phenylamino)-quinazoline-6-carboxylic acid 3-methoxy-benzylamide] | < 5 µM
Cc1ccccc1-c1ccc2ncnc(Nc3ccc(N4CCOCC4)cc3)c2c1 [Example 17, (4-Morpholin-4-yl-phenyl)-(6-o-tolyl-quinazolin-4-yl)-amine] | < 5 µM
COc1cc(Nc2ncnc3ccc(I)cc23)ccc1N1CCOCC1 [Example 41, (6-Iodo-quinazolin-4-yl)-(3-methoxy-4-morpholin-4-yl-phenyl)-amine] | < 5 µM
CCNC(=O)c1ccc2ncnc(Nc3ccc(N4CCOCC4)cc3)c2c1 [Example 32, 4-(4-Morpholin-4-yl-phenylamino)-quinazoline-6-carboxylic acid ethylamide] | < 5 µM
Cc1csc(-c2ccc3ncnc(Nc4ccc(N5CCOCC5)cc4)c3c2)c1 [Example 20, [6-(4-Methyl-thiophen-2-yl)-quinazolin-4-yl]-(4-morpholin-4-yl-phenyl)-amine] | < 5 µM
CC(C)(C)OC(=O)Nc1ccc(-c2ccc3ncnc(Nc4ccc(N5CCOCC5)cc4)c3c2)cc1 [Example 36, {4-[4-(4-Morpholin-4-yl-phenylamino)-quinazolin-6-yl]-phenyl}-carbamic acid tert-butyl ester] | < 1 µM
c1csc(-c2ccc3ncnc(Nc4ccc(N5CCOCC5)cc4)c3c2)n1 [Example 18, (4-Morpholin-4-yl-phenyl)-(6-thiazol-2-yl-quinazolin-4-yl)-amine] | < 1 µM
CN(C)C(=O)c1ccc2ncnc(Nc3ccc(N4CCOCC4)cc3)c2c1 [Example 31, 4-(4-Morpholin-4-yl-phenylamino)-quinazoline-6-carboxylic acid dimethylamide] | < 5 µM
c1nc(Nc2ccc(N3CCOCC3)cc2)c2cc(-c3ccc(C4OCCO4)o3)ccc2n1 [Example 6, [6-(5-[1,3]Dioxolan-2-yl-furan-2-yl)quinazolin-4-yl]-(4-morpholin-4-yl-phenyl)-amine] | < 5 µM
CS(=O)(=O)CCNCc1ccc(-c2ccc3ncnc(Nc4ccc(N5CCOCC5)cc4)c3c2)o1 [Example 9, (6-{5-[(2-Methanesulfonyl-ethylamino)-methyl]-furan-2-yl}-quinazolin-4-yl)-(4-morpholin-4-yl-phenyl)-amine] | < 1 µM
CC(C)N(c1ccc(N2CCOCC2)cc1)c1ncnc2ccc(-c3cccs3)cc12 [Example 48, Isopropyl-(4-morpholin-4-yl-phenyl)-(6-thiophen-2-yl-quinazolin-4-yl)-amine] | < 5 µM
CC(C)CCN(c1ccc(N2CCOCC2)cc1)c1ncnc2ccc(I)cc12 [Example 47, (6-Iodo-quinazolin-4-yl)-(3-methyl-butyl)-(4-morpholin-4-yl-phenyl)-amine] | < 5 µM
c1coc(-c2ccc3ncnc(Nc4ccc(N5CCOCC5)cc4)c3c2)c1 [Example 5, (6-Furan-2-yl-quinazolin-4-yl)-(4-morpholin-4-yl-phenyl)-amine] | < 1 µM
CN(C)Cc1ccc(-c2ccc3ncnc(Nc4ccc(N5CCOCC5)cc4)c3c2)o1 [Example 13, [6-(5-Dimethylaminomethyl-furan-2-yl)-quinazolin-4-yl]-(4-morpholin-4-yl-phenyl)-amine] | < 5 µM
Cc1cc(N2CCOCC2)ccc1Nc1ncnc2ccc(-c3cccs3)cc12 [Example 43, (2-Methyl-4-morpholin-4-yl-phenyl)-(6-thiophen-2-yl-quinazolin-4-yl)-amine] | < 1 µM

— patent US20080311076A1, “Morpholinylanilinoquinazoline Derivatives For Use As Antiviral Agents” (ARROW THERAPEUTICS LIMITED, priority 2004, published 2008)
